Test results from ChEMBL document CHEMBL1201862, “PubChem BioAssay data set” (2004).
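Tested at 5 concentrations; 48 h exposure; 96-well plates; endpoints linearly interpolated, else capped at highest concentration. GI50 = concentration required for 50% inhibition of growth.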 Activity calls are given as the source filed them. Rule as the data show it: active = GI50 up to about 1.1 µM and inactive = higher.

What was measured:
Assay in all cases: NCI anticancer screen, dose series, 48 h
A498 = system: A498
BT-549 = system: BT-549
DU-145 = system: DU-145
HCT-15 = system: HCT-15
HL-60 = system: HL-60
Hs-578T = system: Hs-578T
IGROV-1 = system: IGROV-1
M14 = system: M14
MCF7 = system: MCF7
MDA-MB-231 = system: MDA-MB-231
Malme-3M = system: Malme-3M
OVCAR-5 = system: OVCAR-5
PC-3 = system: PC-3
SF-268 = system: SF-268
SK-MEL-5 = system: SK-MEL-5
SR = system: SR
U-251 = system: U-251
UACC-257 = system: UACC-257
RPMI-8226 = system: RPMI-8226

Row | Compound | GI50 (A498) | GI50 (BT-549) | GI50 (DU-145) | GI50 (HCT-15) [µM] | GI50 (HL-60) | GI50 (Hs-578T) | GI50 (IGROV-1) | GI50 (M14) | GI50 (MCF7) | GI50 (MDA-MB-231) | GI50 (Malme-3M) | GI50 (OVCAR-5) | GI50 (PC-3) | GI50 (SF-268) | GI50 (SK-MEL-5) | GI50 (SR) | GI50 (U-251) | GI50 (UACC-257) | GI50 (RPMI-8226)
1 | C=C1C2CCC3C4(C)CCCC(C)(C(=O)O)C4CCC3(C2)C1OC(=O)/C(C)=C/C (configuration not stated) | 25.3 µM (inactive) | 41.8 µM (inactive) | 42.3 µM (inactive) | 22.9 | 29.9 µM (inactive) | 35.2 µM (inactive) | 27.1 µM (inactive) | 20.8 µM (inactive) | 32.7 µM (inactive) | 20.9 µM (inactive) | 30 µM (inactive) | 28.4 µM (inactive) | 31.3 µM (inactive) | 38.7 µM (inactive) | 27.4 µM (inactive) | 2.98 µM (inactive) | 30.7 µM (inactive) | 39.7 µM (inactive) | 
2 | CCN1C(Cl)=NS(=O)(=O)c2ccccc21 | 22.4 µM (inactive) | 17.5 µM (inactive) | 36.7 µM (inactive) | 9.86 | 3.87 µM (inactive) | 36.9 µM (inactive) | 23.1 µM (inactive) | 14.9 µM (inactive) | 27.5 µM (inactive) | 23 µM (inactive) |  | 26.4 µM (inactive) | 50 µM (inactive) | 36.6 µM (inactive) | 13.6 µM (inactive) | 34.1 µM (inactive) | 62.1 µM (inactive) | 28 µM (inactive) | 
3 | Cc1cc2c(cc1Cl)SC(NNCCO)=NS2(=O)=O |  | > 100 µM (inactive) | > 100 µM (inactive) | > 100 | > 100 µM (inactive) | > 100 µM (inactive) | > 100 µM (inactive) | > 100 µM (inactive) | > 100 µM (inactive) | > 100 µM (inactive) |  |  | 86.3 µM (inactive) | > 100 µM (inactive) | 73.1 µM (inactive) | > 100 µM (inactive) | > 100 µM (inactive) | > 100 µM (inactive) | > 100 µM (inactive)
4 | CC1(C)O[C@@H]([C@@H](O)[C@H](O)C2SCCCS2)[C@@H](CO)O1 | > 100 µM (inactive) | > 100 µM (inactive) | > 100 µM (inactive) | > 100 | > 100 µM (inactive) | > 100 µM (inactive) | > 100 µM (inactive) | > 100 µM (inactive) |  | > 100 µM (inactive) | > 100 µM (inactive) | > 100 µM (inactive) | > 100 µM (inactive) | > 100 µM (inactive) | > 100 µM (inactive) |  | > 100 µM (inactive) | > 100 µM (inactive) | > 100 µM (inactive)
5 | CCc1ccccc1NC(=O)C(=O)CC(=O)c1sc(Nc2ccccc2Cl)nc1C |  | 34.8 µM (inactive) | 55.1 µM (inactive) | 30.6 | 47 µM (inactive) | 46.5 µM (inactive) | 40 µM (inactive) | 27.7 µM (inactive) | 18.2 µM (inactive) | 27 µM (inactive) |  | > 100 µM (inactive) | 26.9 µM (inactive) | 66.4 µM (inactive) | 17.6 µM (inactive) |  | 32.5 µM (inactive) | 43.8 µM (inactive) | 19.2 µM (inactive)
6 | COc1cc(-c2nc3ccccn3c2/N=C/c2cc(Br)cc(Br)c2O)ccc1O |  | 20.3 µM (inactive) | 27.6 µM (inactive) | 19 | 18.2 µM (inactive) | 26.1 µM (inactive) | 22.9 µM (inactive) | 18.2 µM (inactive) | 22.3 µM (inactive) | 15.6 µM (inactive) | 23.3 µM (inactive) | 31.4 µM (inactive) | 22.6 µM (inactive) | 14.3 µM (inactive) | 25.5 µM (inactive) | 25.9 µM (inactive) | 15.6 µM (inactive) | 27.1 µM (inactive) | 24.7 µM (inactive)
7 | CSc1ccn(C2CC(F)C(CO)O2)c(=O)n1 (configuration not stated) | > 100 µM (inactive) | > 100 µM (inactive) | > 100 µM (inactive) | > 100 | > 100 µM (inactive) | > 100 µM (inactive) | > 100 µM (inactive) | > 100 µM (inactive) | > 100 µM (inactive) | > 100 µM (inactive) | > 100 µM (inactive) | > 100 µM (inactive) | > 100 µM (inactive) | > 100 µM (inactive) | > 100 µM (inactive) | > 100 µM (inactive) | > 100 µM (inactive) | > 100 µM (inactive) | 
8 | CSCCCNC(=O)c1csc(-c2csc(CCNC(=O)CNC(=O)OC(C)(C)C)n2)n1 | > 100 µM (inactive) | 35.4 µM (inactive) | > 100 µM (inactive) | > 100 |  | > 100 µM (inactive) | > 100 µM (inactive) | > 100 µM (inactive) | 46.6 µM (inactive) | > 100 µM (inactive) | > 100 µM (inactive) | > 100 µM (inactive) | > 100 µM (inactive) | > 100 µM (inactive) | 47.4 µM (inactive) | > 100 µM (inactive) | > 100 µM (inactive) | > 100 µM (inactive) | 
